Measured values reported in article PMC11314129, “Synthesis, Computational Study, and In Vitro α-Glucosidase Inhibitory Action of Thiourea Derivatives Based on 3-Aminopyridin-2(1H)-Ones” (Molecules, 2024).
“Also recorded” adds a separate entry of the source.

Columns and labels:
[1] = target: T1, α-glucosidase from Saccharomyces cerevisiae (Saccharomyces cerevisiae, UniProt P53341); assay: biochemical; assay type: biochemical; conditions: for Inhibitory Activity of Test Compounds at a Concentration of 15 mM Against the α-Glucosidase Enzyme (%) / IC50 (mM): mean ± standard error of the mean; for Inhibitory Activity of Test Compounds at a Concentration of 15 mM Against the α-Glucosidase Enzyme (%): triplets; for IC50 (mM): from graph of enzyme activity vs concentration; for inhibition at 15000 µM: read-out: Inhibitory Activity of Test Compounds at a Concentration of 15 mM Against the α-Glucosidase Enzyme (%)
T1 construct: purchased Sigma-Aldrich
T1 sequence (P53341 whole entry): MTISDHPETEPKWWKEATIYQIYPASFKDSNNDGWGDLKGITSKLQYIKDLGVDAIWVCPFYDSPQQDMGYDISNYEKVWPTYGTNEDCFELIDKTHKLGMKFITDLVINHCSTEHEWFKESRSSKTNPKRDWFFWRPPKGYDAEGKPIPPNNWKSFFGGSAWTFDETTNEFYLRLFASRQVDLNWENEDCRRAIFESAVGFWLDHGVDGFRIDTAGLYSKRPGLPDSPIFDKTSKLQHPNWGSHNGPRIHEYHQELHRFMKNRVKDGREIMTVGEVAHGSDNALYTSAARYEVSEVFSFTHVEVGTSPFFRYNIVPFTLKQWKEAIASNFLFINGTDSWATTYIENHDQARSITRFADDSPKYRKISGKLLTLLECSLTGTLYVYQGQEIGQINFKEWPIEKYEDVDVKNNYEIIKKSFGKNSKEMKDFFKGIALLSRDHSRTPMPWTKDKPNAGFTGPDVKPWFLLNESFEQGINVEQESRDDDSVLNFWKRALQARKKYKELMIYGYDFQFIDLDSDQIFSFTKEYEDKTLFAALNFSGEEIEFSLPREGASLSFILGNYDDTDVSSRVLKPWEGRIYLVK
Protocol: Antidiabetic activity was assessed by the degree of the inhibition of α-glucosidase activity by the test substances.
The study of the α-glucosidase activity inhibition degree by the test compounds was performed using a standard method with minor modifications.
Antidiabetic activity was assessed by the degree of inhibition of α-glucosidase activity by the test substances. The α-glucosidase enzyme determines the extent to which glucose enters the bloodstream from the gastrointestinal tract. […] The enzyme (α-glucosidase from Saccharomyces cerevisiae, Sigma-Aldrich, St. Louis, MO, USA, 1.0 U/mL) in phosphate-buffered saline was incubated with various concentrations of test compounds at 37 °C for 15 min. All the studied substances were dissolved in 40% DMSO. Then, 5 mM p-nitrophenyl α-d-glucopyranoside was added to the mixture as a substrate. The mixture was incubated at […] for 20 min. The absorbance was measured spectrophotometrically at 405 nm. The sample solution was replaced by 40% DMSO as a control. […] All samples were studied in triplets.
Inhibitory activity was expressed as a percentage (%) according to the degree of inhibition of α-glucosidase in comparison with the negative control. It was calculated using the following formula:
Inhibitory activity (%) = (1 − As/Ac) × 100%, where As is the optical density of the test compound, and Ac is the optical density of control.
The IC50 was determined from the graph of enzyme activity changes depending on the sample concentration.
The statistical processing of the results was carried out using the “Excel 2019” program.

glucose-6-phosphatase = tested on: glucose-6-phosphatase; design: method as in PMID 33304132; conditions: Swiss albino mice, cited from earlier work

Row | Structure (SMILES) | inhibitory activity against α-glucosidase (in words) [1] | Inhibitory Activity of Test Compounds at a Concentration of 15 mM Against the α-Glucosidase Enzyme (%) [1] | IC50 (mM) [1] | melting point | IC50 [1] | inhibition at 15000 µM [1] | inhibition of the enzyme glucose-6-phosphatase (glucose-6-phosphatase; streptozotocin diabetes) | safety for use in animals (glucose-6-phosphatase)
1 | CC(=O)NC(=S)Nc1c(C)cc(C)[nH]c1=O [Compound 10a, N-((4,6-Dimethyl-2-oxo-1,2-dihydropyridin-3-yl)carbamothioyl)acetamide] | did not show inhibitory activity; also recorded: showed no inhibitory activity | No activity | No activity | 273 to 275 °C |  |  |  | 
2 | Cc1cc(-c2ccccc2)c(NC(=S)NC(=O)c2ccccc2)c(=O)[nH]1 [Compound 11b, N-[(6-Methyl-2-oxo-4-phenyl-1,2-dihydropyridin-3-yl)carbamothioyl]benzamide] | did not show inhibitory activity; also recorded: showed no inhibitory activity | No activity | No activity | 218 to 220 °C |  |  |  | 
3 | Cc1cc(-c2cccs2)c(NC(=S)NC(=O)c2ccccc2)c(=O)[nH]1 [Compound 11c, N-((6-Methyl-2-oxo-4-(thiophen-2-yl)-1,2-dihydropyridin-3-yl)carbamothioyl)benzamide] | did not show inhibitory activity; also recorded: showed no inhibitory activity | No activity | No activity | 245 to 249 °C |  |  |  | 
4 | Cc1cc(-c2ccccc2)c(NC(=S)Nc2ccccc2)c(=O)[nH]1 [Compound 9b, 1-(6-Methyl-2-oxo-4-phenyl-1,2-dihydropyridin-3-yl)-3-phenylthiourea] |  |  |  | 141 to 144 °C | 21.8 ± 2.65 mM | 35.2 ± 3.4% |  | 
5 | S=C(NC(c1ccccn1)C(Cc1ccccc1)Cc1ccccc1)NC(c1ccccn1)C(Cc1ccccc1)Cc1ccccc1 (stereo not shown) [Compound 4, 1,3-bis(2-benzyl-3-phenyl-1-(pyridine-2-yl)propyl)thiourea] |  |  |  |  |  |  | highest inhibition value | without having any toxic or lethal effects
6 | CC(=O)NC(=S)Nc1c(-c2ccccc2)cc(C)[nH]c1=O [Compound 10b, N-((6-Methyl-2-oxo-4-phenyl-1,2-dihydropyridin-3-yl)carbamothioyl)acetamide] | did not show inhibitory activity; also recorded: showed no inhibitory activity | No activity | No activity | 249 to 251 °C |  |  |  | 
7 | C=CCNC(=S)Nc1c(C)cc(C)[nH]c1=O [Compound 8a, 1-allyl-3-(4,6-dimethyl-2-oxo-1,2-dihydropyridin-3-yl)thiourea] |  |  |  |  | 16.6 ± 1.57 mM | 23.3 ± 1.7% |  | 
8 | CC(=O)NC(=S)Nc1c(-c2cccs2)cc(C)[nH]c1=O [Compound 10c, N-((6-Methyl-2-oxo-4-(thiophen-2-yl)-1,2-dihydropyridin-3-yl)carbamothioyl)acetamide] | did not show inhibitory activity; also recorded: showed no inhibitory activity | No activity | No activity | 252 to 254 °C |  |  |  | 
9 | Cc1cc(-c2cccs2)c(NC(=S)Nc2ccccc2)c(=O)[nH]1 [Compound 9c, 1-(6-Methyl-2-oxo-4-(thiophen-2-yl)-1,2-dihydropyridin-3-yl)-3-phenylthiourea] |  |  |  | 145 to 147 °C |  | 41.2 ± 2.5% |  | 
10 | C=CCNC(=S)Nc1c(-c2cccs2)cc(C)[nH]c1=O [Compound 8c, 1-Allyl-3-(6-methyl-2-oxo-4-(thiophen-2-yl)-1,2-dihydropyridin-3-yl)thiourea] | did not show inhibitory activity; also recorded: showed no inhibitory activity | No activity | No activity | 289 to 292 °C |  |  |  | 
11 | Cc1cc(C)c(NC(=S)NC(=O)c2ccccc2)c(=O)[nH]1 [Compound 11a, N-((4,6-Dimethyl-2-oxo-1,2-dihydropyridin-3-yl)carbamothioyl)benzamide] | did not show inhibitory activity; also recorded: showed no inhibitory activity | No activity | No activity | 230 to 232 °C |  |  |  | 
12 | C[C@H]1O[C@H](O[C@H]2[C@H](O)[C@@H](O)[C@@H](O[C@H]3[C@H](O)[C@@H](O)C(O)O[C@@H]3CO)O[C@@H]2CO)[C@H](O)[C@@H](O)[C@@H]1N[C@H]1C=C(CO)[C@@H](O)[C@H](O)[C@H]1O (stereo partly shown) [Acarbose, reference compound] |  |  |  |  |  | 46.1 ± 4.6% |  | 
13 | Cc1cc(C)c(NC(=S)Nc2ccccc2)c(=O)[nH]1 [Compound 9a, 1-(4,6-Dimethyl-2-oxo-1,2-dihydropyridin-3-yl)-3-phenylthiourea] |  |  |  | 140 to 143 °C | 9.77 ± 0.83 mM | 56.6 ± 2.2% |  | 
14 | C=CCNC(=S)Nc1c(-c2ccccc2)cc(C)[nH]c1=O [Compound 8b, 1-allyl-3-(6-methyl-2-oxo-4-phenyl-1,2-dihydropyridin-3-yl)thiourea] |  |  |  |  | 19.8 ± 2.55 mM | 26.9 ± 2.5% |  | 
